Data reported in patent publication US7595158B2, “Bcl2L12 polypeptide activators and inhibitors” (Dana-Farber Cancer Institute, Inc., priority 2003, dated 2009).

Experiments:
Format in all cases: cell-based, human
LN443 cells = assay: STS-induced DNA fragmentation (sub-G1, FACS) in LN443 cells; settings: LN443, 2.0 μM STS; control siRNA about 40 percent
Method: (§1) LNZ308 and LN443 glioma cell lines transfected with control siRNA, Bcl2L12-targeting siRNA #4, or Bcl2L12-targeting siRNA #5 were treated with 0, 0.2, 0.5, 1.0, or 2.0 μM STS. DNA-fragmentation was assessed by quantifying sub-G1 peaks using FACS analysis. siRNA-mediated knockdown of Bcl2L12 polypeptide sensitized the glioma cell lines to STS-induced apoptosis. […] The maximum percent DNA fragmentation was about 30 percent, 45 percent, and 55 percent in LNZ308 cells transfected with control siRNA, siRNA #4, or siRNA #5, respectively, and treated with 2.0 μM STS (FIG. 10B). […] The maximum percent DNA fragmentation was about 40 percent, 60 percent, and 75 percent in LN443 cells transfected with control siRNA, siRNA #4, or siRNA #5, respectively, and treated with 2.0 μM STS (FIG. 10C).

Bcl2L12 polypeptide = assay: Endogenous Bcl2L12 polypeptide expression in U87MG cells (Western blot, immunofluorescence); settings: 48 hours post transfection, anti-L12-1 Western blot
Method: Down-regulation of Bcl2L12 polypeptide expression via RNA interference was assessed in U87MG cells. Briefly, U87MG cells were co-transfected (1:10 ratio) with 0.5 μg of vector encoding GFP and 5 μg of either pSHAG-Control, pSHAG-Bcl2L12-A, pSHAG-Bcl2L12-B, or pSHAG-Bcl2L12-A+-B. Once transfected, the cells expressing GFP were sorted out by FACS analysis. […] The FACS-sorted cells were assessed for Bcl2L12 polypeptide expression. […] The FACS-sorted cells also were seeded in 24-well plates at a density of 1×10^5 cells, grown in 10% FBS-DMEM, and counted every day for three days.
In another experiment, total cellular lysates of U87MG cells transfected with control siRNA, Bcl2L12-targeting siRNA #4, or Bcl2L12-targeting siRNA #5 were harvested 48 hours post transfection and subjected to western blot analysis using the anti-L12-1 antibody (1 μg/mL).
The following experiments were performed to characterize the anti-Bcl2L12 polypeptide antibodies. U87MG cells stably expressing control or Bcl2L12-targeting shRNA (shL12-1) were subjected to deconvolution immunofluorescence microscopy using the anti-L12-2 antiserum. Cells were counterstained with DAPI. […]
The potential anti-oncogenic impact of Bcl2L12 polypeptide knockdown was assessed in the U87MG human glioma model system. […] Bcl2L12 polypeptide expression was analyzed by western blotting using the anti-L12-1 antibody. […]

LNZ308 cells = assay: STS-induced DNA fragmentation (sub-G1, FACS) in LNZ308 cells; settings: LNZ308, 2.0 μM STS; control siRNA about 30 percent
Method: as §1
LNZ308 cells co-transfected with pcDNA3-GFP and either pSHAG-A or pSHAG-B were treated with 0.1 or 0.5 μM of STS for 24 hours, and DNA fragmentation was assessed.

pro-caspase-7 = assay: Anti-L12-2 immunoprecipitation from U87MG cells, Western blot for caspase-7; settings: anti-L12-2 immunoprecipitates
Method: To define further the molecular actions of Bcl2L12 polypeptides, the physical interactions with key post-mitochondrial apoptosis signaling molecules were assessed. Anti-L12-2 immunoprecipitates from lysates of LNZ308, U87MG, and 293T cells were subjected to western blot analysis for procaspases 7 and 3 and cytochrome c. Briefly, cells were lysed in IP buffer. Cleared supernatants were incubated with prebleed serum (8 μl) coupled to Protein A-sepharose 4B beads (Sigma) for 1 hour and subsequently with anti-L12-2 antiserum (8 μl) for 1 to 2 hours. For western blot analyses, polypeptides were separated by 4-12% SDS-PAGE, transferred to Hybond PVDF membranes (Amersham), blocked with 5% milk in phosphate-buffered saline with 0.05% Tween 20 (PBS/Tween) for 1 hour, washed with PBS/Tween and incubated with anti-cytochrome c antibodies (0.5 μg/ml; BD Pharmingen), anti-caspase-7 antibodies (0.5 μg/ml, BD Pharmingen), or anti-caspase-3 anitbodies (0.25 μg/ml, BD Transduction Laboratories) in PBS/Tween 20 with 5% milk. The blots were washed with PBS/Tween and developed with goat anti-rabbit IgG (1:10,000) or with goat anti-mouse antibodies (1:10,000) (Pierce) in 5% milk PBS/Tween. […] 1/40 of the lysate used for the immunoprecipitation was loaded to quantify the amount of co-immunoprecipitated caspase-7. […]

[1] = test system: caspases 2, 3/7, 6, 8, and 9; assay: Caspase activity profile with fluorogenic peptide substrates in LNZ308 cells; settings: LNZ308, STS 24 hours
Method: LNZ308 cells were transfected with control or siRNA oligonucleotide #5, and treated with STS for 24 hours. Subsequently, caspase activity was profiled using caspase-specific fluorogenic peptide substrates assessing the activity status of caspases 2, 3/7, 6, 8, and 9.

| Substance | maximum percent DNA fragmentation (LN443 cells) [%] | Bcl2L12 polypeptide levels (Bcl2L12 polypeptide) | maximum percent DNA fragmentation (LNZ308 cells) [%] | co-immunoprecipated pro-caspase-7 (pro-caspase-7) | caspase activity [1] |
| --- | --- | --- | --- | --- | --- |
| siRNA #4: Bcl2L12-targeting siRNA oligonucleotide 5′-AAGCUGGUCCGCCUGUCCU-3′; SEQ ID NO:6 (chemistry not given here) | ~60 | significant reduction | ~45 | – | – |
| siRNA #5: Bcl2L12-targeting siRNA oligonucleotide 5′-UGGUGGAGCUGUUCUGUAG-3′; SEQ ID NO:7 (chemistry not given here) | ~75 | significant reduction | ~55 | significant decrease | enhanced caspase activity |
